Test results taken from PMC11249646, “Small-Molecule Disruptors of the Interaction between Calcium- and Integrin-Binding Protein 1 and Integrin αIIbβ3 as Novel Antiplatelet Agents” (ACS Pharmacology & Translational Science, 2024).

target: T1, GST-CIB1 : F-scrambled peptide (Homo sapiens, UniProt Q99828); assay: FP scrambled-peptide counter screen, 384-well format; format: binding; details: F-scrambled peptide
T1 construct: made in house; host or cells: BL-21 plus RIL cells (E. coli)
T1 sequence (Q99828 1-191): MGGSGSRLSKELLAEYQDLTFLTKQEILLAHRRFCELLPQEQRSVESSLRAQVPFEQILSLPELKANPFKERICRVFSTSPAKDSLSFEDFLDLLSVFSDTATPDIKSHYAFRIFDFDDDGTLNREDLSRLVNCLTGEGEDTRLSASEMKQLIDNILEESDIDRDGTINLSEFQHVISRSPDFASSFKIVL

Row | Compound | 384-well COUNTERSCREEN Efficacy (%)
1 | Cc1csc(CNc2ncnc3ccc(-c4ccc(CO)o4)cc23)n1.O=C(O)C(F)(F)F [NCGC00229623-01] | 39
2 | CC(O)c1ccc(-c2ccc3ncnc(NCc4nccs4)c3c2)o1.O=C(O)C(F)(F)F (stereo not shown) [NCGC00238382-01] | 36
3 | O=C(O)C(F)(F)F.OCc1ccc(-c2ccc3ncnc(NCc4nccs4)c3c2)o1 [NCGC00238383-01] | 47

same assay, conditions: F-scrambled peptide; *: Curve in opposite direction

Row | Compound | 384-well COUNTERSCREEN Confirm?
4 | CC(O)c1ccc(-c2ccc3ncnc(NCc4nccs4)c3c2)o1.O=C(O)C(F)(F)F (stereo not shown) [NCGC00238382-01] | YES

same assay, conditions: F-scrambled peptide; read-out: 384-well COUNTERSCREEN IC50

Row | Compound | IC50 [µM]
5 | Cc1csc(CNc2ncnc3ccc(-c4ccc(CO)o4)cc23)n1.O=C(O)C(F)(F)F [NCGC00229623-01] | 25.1
6 | CC(O)c1ccc(-c2ccc3ncnc(NCc4nccs4)c3c2)o1.O=C(O)C(F)(F)F (stereo not shown) [NCGC00238382-01] | 17.7
7 | O=C(O)C(F)(F)F.OCc1ccc(-c2ccc3ncnc(NCc4nccs4)c3c2)o1 [NCGC00238383-01] | 39.8

target: T2, CIB1 and αIIb interaction (CIB1-GST : F-αIIb peptide) (Homo sapiens, UniProt Q99828); assay: FP assay, 1536-well qHTS format (primary and confirmatory screen); format: binding; details: confirmatory screen, YES/NO call
T2 construct: made in house; host or cells: BL-21 plus RIL cells (E. coli)
T2 sequence (Q99828 1-191): T1 sequence (Q99828 1-191)

Row | Compound | CONFIRMATORY SCREEN Confirm?
8 | Cc1csc(CNc2ncnc3ccc(-c4ccc(CO)o4)cc23)n1.O=C(O)C(F)(F)F [NCGC00229623-01] | YES
9 | CC(O)c1ccc(-c2ccc3ncnc(NCc4nccs4)c3c2)o1.O=C(O)C(F)(F)F (stereo not shown) [NCGC00238382-01] | YES
10 | O=C(O)C(F)(F)F.OCc1ccc(-c2ccc3ncnc(NCc4nccs4)c3c2)o1 [NCGC00238383-01] | YES

same assay, conditions: confirmatory screen, qHTS curve class; negative sign = inhibitory curve

Row | Compound | CONFIRMATORY SCREEN Curve Class
11 | Cc1csc(CNc2ncnc3ccc(-c4ccc(CO)o4)cc23)n1.O=C(O)C(F)(F)F [NCGC00229623-01] | -3
12 | CC(O)c1ccc(-c2ccc3ncnc(NCc4nccs4)c3c2)o1.O=C(O)C(F)(F)F (stereo not shown) [NCGC00238382-01] | -3
13 | O=C(O)C(F)(F)F.OCc1ccc(-c2ccc3ncnc(NCc4nccs4)c3c2)o1 [NCGC00238383-01] | -3

same assay, conditions: confirmatory screen; negative = inhibition

Row | Compound | CONFIRMATORY SCREEN Efficacy (%)
14 | Cc1csc(CNc2ncnc3ccc(-c4ccc(CO)o4)cc23)n1.O=C(O)C(F)(F)F [NCGC00229623-01] | -83
15 | CC(O)c1ccc(-c2ccc3ncnc(NCc4nccs4)c3c2)o1.O=C(O)C(F)(F)F (stereo not shown) [NCGC00238382-01] | -53
16 | O=C(O)C(F)(F)F.OCc1ccc(-c2ccc3ncnc(NCc4nccs4)c3c2)o1 [NCGC00238383-01] | -52

same assay, conditions: confirmatory screen; read-out: CONFIRMATORY SCREEN IC50

Row | Compound | IC50 [µM]
17 | O=C(O)C(F)(F)F.OCc1ccc(-c2ccc3ncnc(NCc4nccs4)c3c2)o1 [NCGC00238383-01] | 70.8

same assay, conditions: qHTS FP screen hits, Table S2; negative = inhibition

Row | Compound | Efficacy (%)
18 | CC(O)c1ccc(-c2ccc3ncnc(NCc4nccs4)c3c2)o1.O=C(O)C(F)(F)F (stereo not shown) [NCGC00238382-01] | -63

same assay, conditions: qHTS FP screen hits, Table S2; one class per curve where COUNT > 1; negative sign = inhibitory curve

Row | Compound | Curve Class
19 | CC(O)c1ccc(-c2ccc3ncnc(NCc4nccs4)c3c2)o1.O=C(O)C(F)(F)F (stereo not shown) [NCGC00238382-01] | -2.2

same assay, conditions: qHTS FP screen hits, Table S2; read-out: IC50

Row | Compound | IC50 [µM]
20 | CC(O)c1ccc(-c2ccc3ncnc(NCc4nccs4)c3c2)o1.O=C(O)C(F)(F)F (stereo not shown) [NCGC00238382-01] | 39.8

same assay, conditions: qHTS primary screen hits, Table S2; negative = inhibition

Row | Compound | Efficacy (%)
21 | Cc1csc(CNc2ncnc3ccc(-c4ccc(CO)o4)cc23)n1.O=C(O)C(F)(F)F [NCGC00229623-01] | -60
22 | O=C(O)C(F)(F)F.OCc1ccc(-c2ccc3ncnc(NCc4nccs4)c3c2)o1 [NCGC00238383-01] | -70

same assay, conditions: qHTS primary screen hits, Table S2; negative sign = inhibitory curve

Row | Compound | Curve Class
23 | Cc1csc(CNc2ncnc3ccc(-c4ccc(CO)o4)cc23)n1.O=C(O)C(F)(F)F [NCGC00229623-01] | -2.2
24 | O=C(O)C(F)(F)F.OCc1ccc(-c2ccc3ncnc(NCc4nccs4)c3c2)o1 [NCGC00238383-01] | -2.2

same assay, conditions: qHTS primary screen hits, Table S2; read-out: IC50

Row | Compound | IC50 [µM]
25 | O=C(O)C(F)(F)F.OCc1ccc(-c2ccc3ncnc(NCc4nccs4)c3c2)o1 [NCGC00238383-01] | 39.8

target: T3, CIB1 and αIIb interaction (GST-CIB1 : F-αIIb peptide) (Homo sapiens, UniProt Q99828); assay: FP assay, 384-well format (screen); format: binding; set-up: 384-well SCREEN Efficacy (%): concentration or dose not given beside the values; details: F-αIIb peptide
T3 construct: made in house; host or cells: BL-21 plus RIL cells (E. coli)
T3 sequence (Q99828 1-191): T1 sequence (Q99828 1-191)

Row | Compound | 384-well SCREEN Efficacy (%)
26 | Cc1csc(CNc2ncnc3ccc(-c4ccc(CO)o4)cc23)n1.O=C(O)C(F)(F)F [NCGC00229623-01] | 70
27 | CC(O)c1ccc(-c2ccc3ncnc(NCc4nccs4)c3c2)o1.O=C(O)C(F)(F)F (stereo not shown) [NCGC00238382-01] | 61
28 | O=C(O)C(F)(F)F.OCc1ccc(-c2ccc3ncnc(NCc4nccs4)c3c2)o1 [NCGC00238383-01] | 69

same assay, conditions: F-αIIb peptide; YES/NO

Row | Compound | 384-well SCREEN Confirm?
29 | Cc1csc(CNc2ncnc3ccc(-c4ccc(CO)o4)cc23)n1.O=C(O)C(F)(F)F [NCGC00229623-01] | YES
30 | CC(O)c1ccc(-c2ccc3ncnc(NCc4nccs4)c3c2)o1.O=C(O)C(F)(F)F (stereo not shown) [NCGC00238382-01] | YES
31 | O=C(O)C(F)(F)F.OCc1ccc(-c2ccc3ncnc(NCc4nccs4)c3c2)o1 [NCGC00238383-01] | YES

same assay, conditions: F-αIIb peptide; read-out: 384-well SCREEN IC50

Row | Compound | IC50 [µM]
32 | Cc1csc(CNc2ncnc3ccc(-c4ccc(CO)o4)cc23)n1.O=C(O)C(F)(F)F [NCGC00229623-01] | 35.5
33 | CC(O)c1ccc(-c2ccc3ncnc(NCc4nccs4)c3c2)o1.O=C(O)C(F)(F)F (stereo not shown) [NCGC00238382-01] | 14.1
34 | O=C(O)C(F)(F)F.OCc1ccc(-c2ccc3ncnc(NCc4nccs4)c3c2)o1 [NCGC00238383-01] | 25.1

target: T1, GST-CIB1 : F-scrambled peptide; assay: FP scrambled-peptide counter screen, 1536-well format; format: binding; details: scrambled-peptide counterscreen

Row | Compound | COUNTERSCREEN Efficacy (%)
35 | Cc1csc(CNc2ncnc3ccc(-c4ccc(CO)o4)cc23)n1.O=C(O)C(F)(F)F [NCGC00229623-01] | -25
36 | CC(O)c1ccc(-c2ccc3ncnc(NCc4nccs4)c3c2)o1.O=C(O)C(F)(F)F (stereo not shown) [NCGC00238382-01] | 0
37 | O=C(O)C(F)(F)F.OCc1ccc(-c2ccc3ncnc(NCc4nccs4)c3c2)o1 [NCGC00238383-01] | -16

same assay, conditions: scrambled-peptide counterscreen, YES/NO call

Row | Compound | COUNTERSCREEN Confirm?
38 | Cc1csc(CNc2ncnc3ccc(-c4ccc(CO)o4)cc23)n1.O=C(O)C(F)(F)F [NCGC00229623-01] | YES
39 | CC(O)c1ccc(-c2ccc3ncnc(NCc4nccs4)c3c2)o1.O=C(O)C(F)(F)F (stereo not shown) [NCGC00238382-01] | YES
40 | O=C(O)C(F)(F)F.OCc1ccc(-c2ccc3ncnc(NCc4nccs4)c3c2)o1 [NCGC00238383-01] | YES

same assay, conditions: scrambled-peptide counterscreen, qHTS curve class

Row | Compound | COUNTERSCREEN Curve Class
41 | Cc1csc(CNc2ncnc3ccc(-c4ccc(CO)o4)cc23)n1.O=C(O)C(F)(F)F [NCGC00229623-01] | 4
42 | CC(O)c1ccc(-c2ccc3ncnc(NCc4nccs4)c3c2)o1.O=C(O)C(F)(F)F (stereo not shown) [NCGC00238382-01] | 4
43 | O=C(O)C(F)(F)F.OCc1ccc(-c2ccc3ncnc(NCc4nccs4)c3c2)o1 [NCGC00238383-01] | 4
